Results on 31 compounds are retold here after patent US5874597A, “Certain aminosterol compounds and pharmaceutical compositions including these compounds” (priority 1995, dated 1999).

Molecules are shown by their SMILES. “Also recorded” adds a separate entry of the source. Where only a bound is given, the exact number is not on record here.

One test has as its system NHE3.
Test: not given
To be noted: cited from earlier work.
Take `N=C(N)NC(=O)c1nc(Cl)c(N)nc1N` [Amiloride, amiloride]: the “effect on NHE3 kinetics (Km, Vmax)” value is listed as “affected only Vmax”.

The next test relates to human melanoma. The test can be described thus: effect on growth of human melanoma (time course, apoptosis). It is filed as cell-based.
Conditions: not given
For `CC(C)CCC[C@@H](C)[C@H]1CC[C@H]2[C@@H]3CC[C@H]4C[C@@H](NCCCNCCCCNCCCN)CC[C@]4(C)[C@H]3CC[C@]12C` [Compound 353], the “mechanism of cell death” value is “apoptotic cell death has been induced”.

The same test, now with this note: FIG. 17A.
As to `CC(C)CCC[C@@H](C)[C@H]1CC[C@H]2[C@@H]3CC[C@H]4C[C@@H](NCCCNCCCCNCCCN)CC[C@]4(C)[C@H]3CC[C@]12C` [Compound 353], the “time dependence of effect on growth of melanoma” value is “most pronounced over 48 hours”.

Another test has as its system Xenopus tadpole (stage 59-60). The test can be described thus: Xenopus tadpole assay. To be noted: 10 μg/ml; about 1 hour. It is filed as in vivo, Xenopus laevis.
As to `CC(COS(=O)(=O)O)C(=O)CC[C@@H](C)[C@H]1CC[C@H]2[C@@H]3[C@H](O)C[C@H]4C[C@@H](NCCCNCCCCN)CC[C@]4(C)[C@H]3CC[C@]12C` (single isomer, unassigned) [Compound 1360], the “tadpole response” value was “Swelling and lysis of certain erythrocytes occurred; also recorded: extensive vasocclusion occurred within 60 minutes throughout the tail”.

Staying with this test, now noted: in vivo.
With `CC(C)CCC[C@@H](C)[C@H]1CC[C@H]2[C@@H]3[C@H](O)C[C@H]4C[C@H](N)CC[C@]4(C)[C@H]3CC[C@]12C` [Compound 1363], the “pharmacologic similarity in tadpole assay” value is reported as “pharmacologic activity similar to Fraction 1”.
Same read-out and setting: to `C[C@H](CCC(=O)O)[C@H]1CC[C@H]2[C@@H]3[C@H](O)C[C@@H]4C[C@H](NCCN)CC[C@]4(C)[C@H]3CC[C@]12C` [Compound 414] belongs “pharmacologic activity similar to Fraction 1”.

A further test concerns vitelline capillaries of chick embryo. The test can be described thus: chick embryo vitelline capillary regression assay. It is filed as in vivo. Also on record: key to vitelline capillary regression: +: Vascular reactivity; 0: No vascular reactivity; +/-: Equivocal reactivity. The settings on record: 0.1 μg applied; 60 min. The protocol: Using the chick embryo vitelline capillaries assay, compounds were tested for their ability to induce capillary regression. Each compound was applied in 0.1 ml of 15% Ficol 400 and PBS onto the embryo, and vascular regression was assessed after 60 minutes.
The 3-day chick embryo consists of an embryonic disc from which numerous vessels emerge and return, forming a "figure 8"-shaped structure--the embryo in the center with vascular loops extending outward over both poles. […] Following a lag period of around 15 minutes, the constriction of continuity between capillary and secondary vessels, generally on the "venous" side, was observed. Continued pulsatile blood flow progressed, resulting in a "swelling" of the blind tube, followed by a pinching off of the remaining connection and formation of an enclosed vascular sac resembling a "blood island." This process progressed until only the largest vessels remained intact.
Take `COC(=O)CC[C@@H](C)[C@H]1CC[C@H]2[C@@H]3[C@H](O)C[C@@H]4C[C@@H](NCCCNCCCCNCCCN)CC[C@]4(C)[C@H]3CC[C@]12C` [Compound 411]: the vitelline capillary regression turned out to be 0.

Still in this test, the particulars now being: Table II.
`CC(C)CCCC(C)[C@H]1CCC2C3CC[C@H]4C[C@H](NCCCN5CCCCN=C5N)CC[C@]4(C)C3CC[C@@]21C` (stereo partly shown): the “Chick embryo diss. assay, Minimum Effective Concentration” value (“Chick embryo diss. assay” for short) is > 10 µg.
On to `COC(=O)CCC(C)[C@H]1CCC2C3CC[C@@H]4C[C@H](NCCCNCCCCNCCCN)CC[C@]4(C)C3CC[C@@]21C` (stereo partly shown), for which the “Chick embryo diss. assay” value is > 1 µg.
Consider `CC(CCC(=O)O)[C@H]1CCC2C3C(CC[C@@]21C)[C@@]1(C)CC[C@H](NCCN)C[C@H]1C[C@H]3O` (stereo partly shown), for which the “Chick embryo diss. assay” value is > 1 µg.
On to `COC(=O)CCC(C)[C@H]1CCC2C3C[C@@H](O)[C@H]4C[C@@H](NCCCNCCCCNCCCN)CC[C@]4(C)C3CC[C@@]21C` (stereo partly shown), for which the “Chick embryo diss. assay” value stood at 1 µg.
Turning to `CC(CCC(=O)O)[C@H]1CCC2C3CC[C@H]4C[C@H](NCCCNCCCCN)CC[C@]4(C)C3CC[C@@]21C` (stereo partly shown), the “Chick embryo diss. assay” value is > 10 µg.
For `COC(=O)CCC(C)[C@H]1CCC2C3C[C@@H](O)[C@H]4C[C@H](NCCN)CC[C@]4(C)C3CC[C@@]21C` (stereo partly shown), the “Chick embryo diss. assay” value was > 1 µg.
The same measure, in the same setting: the same measure for `COC(=O)CCC(C)[C@H]1CCC2C3C(CC[C@@]21C)[C@@]1(C)CC[C@@H](NCCN)C[C@H]1C[C@H]3O` (stereo partly shown): 0.01 µg.
The same measure, in the same setting: the same measure for `CC(CCC(=O)O)[C@H]1CCC2C3C(CC[C@@]21C)[C@@]1(C)CC[C@H](NCCCNCCCCNCCCN)C[C@H]1C[C@H]3O` (stereo partly shown): > 1 µg; for `COC(=O)CCC(C)[C@H]1CCC2C3C(CC[C@@]21C)[C@@]1(C)CC[C@H](NCCCNCCCCNCCCN)C[C@H]1C[C@H]3O` (stereo partly shown): > 1 µg.
The same measure, in the same setting: the same measure for `CC(CCC(=O)O)[C@H]1CCC2C3C(CC[C@@]21C)[C@@]1(C)CC[C@H](NCCCNCCCCNCCCN)C[C@@H]1C[C@H]3O` (stereo partly shown): 1 µg; for `CC(COS(=O)(=O)O)C(=O)CCC(C)[C@H]1CCC2C3C(CC[C@@]21C)[C@@]1(C)CC[C@H](NCCCNCCCCN)C[C@@H]1C[C@H]3O` (stereo partly shown): > 10 µg.
Turning to `COC(=O)CCC(C)[C@H]1CCC2C3CC[C@H]4C[C@@H](NCCCNCCCCNCCCN)CC[C@]4(C)C3CC[C@@]21C` (stereo partly shown), the “Chick embryo diss. assay” value was > 1 µg.
On to `COC(=O)CCC(C)[C@H]1CCC2C3C(CC[C@@]21C)[C@@]1(C)CC[C@H](NCCCNCCCCNCCCN)C[C@@H]1C[C@H]3O` (stereo partly shown), for which the “Chick embryo diss. assay” value worked out at 10 µg.
As for `COC(=O)CCC(C)[C@H]1CCC2C3C(CC[C@@]21C)[C@@]1(C)CC[C@H](NCCN)C[C@H]1C[C@H]3O` (stereo partly shown), the “Chick embryo diss. assay” value is > 1 µg.
For `CC(CCC(=O)O)[C@H]1CCC2C3CC[C@H]4C[C@@H](NCCCNCCCCN)CC[C@]4(C)C3CC[C@@]21C` (stereo partly shown), the “Chick embryo diss. assay” value turned out to be 0.001 µg.
In the case of `CC(C)CCCC(C)[C@H]1CCC2C3CC[C@H]4C[C@@H](NCCCNCCCCN)CC[C@]4(C)C3CC[C@@]21C` (stereo partly shown), the “Chick embryo diss. assay” value was > 10 µg.
Same read-out and setting: to `CC(CCC(=O)O)[C@H]1CCC2C3C(CC[C@@]21C)[C@@]1(C)CC[C@@H](NCCCNCCCCNCCCN)C[C@H]1C[C@H]3O` (stereo partly shown) belongs 1 µg; to `CC(CCC(=O)O)[C@H]1CCC2C3C(CC[C@@]21C)[C@@]1(C)CC[C@H](NCCCNCCCCN)C[C@@H]1C[C@H]3O` (stereo partly shown), > 10 µg.
With `CC(C)CCCC(C)[C@H]1CCC2C3C(CC[C@@]21C)[C@@]1(C)CC[C@H](NCCCNCCCCN)C[C@@H]1C[C@H]3O` (stereo partly shown), the “Chick embryo diss. assay” value lay within 1 to 10 µg.
With `CC(CCC(=O)O)[C@H]1CCC2C3C(CC[C@@]21C)[C@@]1(C)CC[C@@H](NCCN)C[C@H]1C[C@H]3O` (stereo partly shown), the “Chick embryo diss. assay” value is > 1 µg.
On the same count and under the same terms, the same measure for `CC(C)CCCC(C)[C@H]1CCC2C3C(CC[C@@]21C)[C@@]1(C)CC[C@@H](NCCCNCCCCN)C[C@@H]1C[C@H]3O` (stereo partly shown): > 10 µg; for `COC(=O)CCC(C)[C@H]1CCC2C3CC[C@@H]4C[C@H](NCCN)CC[C@]4(C)C3C[C@H](O)[C@@]21C` (stereo partly shown): > 1 µg.
Still for that read-out and setting: the same measure for `COC(=O)CCC(C)[C@H]1CCC2C3C[C@@H](O)[C@H]4C[C@@H](NCCN)CC[C@]4(C)C3CC[C@@]21C` (stereo partly shown): > 1 µg; for `CC(CCC(=O)O)[C@H]1CCC2C3C[C@@H](O)[C@H]4C[C@@H](NCCN)CC[C@]4(C)C3CC[C@@]21C` (stereo partly shown): 1 µg.

The test is the same for the next values; noted with them: in vivo.
Regarding `C[C@H](CCC(=O)O)[C@H]1CC[C@H]2[C@@H]3[C@H](O)C[C@@H]4C[C@@H](NCCN)CC[C@]4(C)[C@H]3CC[C@]12C` [Compound 415], the “effect on vitelline capillaries / chick embryo” value is on record as “especially active”.
Same read-out and setting: the same measure for `CC(C)CCC[C@@H](C)[C@H]1CC[C@H]2[C@@H]3CC[C@H]4C[C@@H](NCCCNCCCCNCCCN)CC[C@]4(C)[C@H]3CC[C@]12C` [Compound 353]: “no effect on the chick embryo capillary bed”.
The same measure, in the same setting: the same measure for `CC(COS(=O)(=O)O)C(=O)CC[C@@H](C)[C@H]1CC[C@H]2[C@@H]3[C@H](O)C[C@H]4C[C@@H](NCCCNCCCCN)CC[C@]4(C)[C@H]3CC[C@]12C` (single isomer, unassigned) [Compound 1360]: “the blood circulating through the embryonic vessels exhibited a brighter red color”.
